Legend:
human LXRβ = molecular target: T1, human LXRβ (Homo sapiens, UniProt P55055); assay: Ligand-binding test procedure for human LXRβ (3H T0901317 tracer, flash plates)
T1 construct: biotin (biotinylated); made in house; host or cells: E. coli (crude extract)
T1 sequence (P55055 1-460): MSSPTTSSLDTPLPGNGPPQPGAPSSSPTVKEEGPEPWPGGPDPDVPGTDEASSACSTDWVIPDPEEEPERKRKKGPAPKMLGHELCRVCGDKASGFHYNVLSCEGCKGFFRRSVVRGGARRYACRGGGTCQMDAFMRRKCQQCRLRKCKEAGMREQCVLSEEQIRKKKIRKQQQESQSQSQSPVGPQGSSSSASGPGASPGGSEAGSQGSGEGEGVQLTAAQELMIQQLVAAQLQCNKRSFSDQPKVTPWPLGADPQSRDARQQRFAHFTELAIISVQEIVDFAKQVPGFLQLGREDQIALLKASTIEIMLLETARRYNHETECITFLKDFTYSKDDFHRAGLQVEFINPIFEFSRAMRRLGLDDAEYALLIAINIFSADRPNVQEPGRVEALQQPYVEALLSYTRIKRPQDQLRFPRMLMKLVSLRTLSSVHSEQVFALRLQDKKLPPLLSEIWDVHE
Description: Receptor source: E. coli extracted from cells expressing biotinylated hLXRβ. Extract was made in a similar buffer as above, but with 50 mM TRIS.
Washed streptavidin and coated flash plates with wash buffer. Diluted receptor extract to give Bmax ˜4000 cpm and add to the wells. Wrapped the plates in aluminum foil and stored them at +4° C. overnight.
(§1) Made a dilution series in DMSO of the test ligands. Made a 5 nM solution of the radioactive tracer in buffer. Mixed 250 μl diluted tracer with 5 μl of the test ligand from each concentration of the dilution series. Washed the receptor-coated flash plates. Added 200 μl per well of the ligand/radiolabel mixture to the receptor-coated flash plates. Wrapped the plates in aluminum foil and incubate at +4° C. over night.
Aspirated wells, and washed the flashed plates. Sealed the plate. Measured the remaining radioactivity in the plate.

human LXRα = molecular target: T2, human LXRα (Homo sapiens, UniProt Q13133); assay: Ligand-binding test procedure for human LXRα (3H T0901317 tracer, flash plates); conditions: biotinylated hLXRα, tracer 3H T0901317
T2 construct: biotin (biotinylated); made in house; host or cells: E. coli (crude extract)
T2 sequence (Q13133 1-447): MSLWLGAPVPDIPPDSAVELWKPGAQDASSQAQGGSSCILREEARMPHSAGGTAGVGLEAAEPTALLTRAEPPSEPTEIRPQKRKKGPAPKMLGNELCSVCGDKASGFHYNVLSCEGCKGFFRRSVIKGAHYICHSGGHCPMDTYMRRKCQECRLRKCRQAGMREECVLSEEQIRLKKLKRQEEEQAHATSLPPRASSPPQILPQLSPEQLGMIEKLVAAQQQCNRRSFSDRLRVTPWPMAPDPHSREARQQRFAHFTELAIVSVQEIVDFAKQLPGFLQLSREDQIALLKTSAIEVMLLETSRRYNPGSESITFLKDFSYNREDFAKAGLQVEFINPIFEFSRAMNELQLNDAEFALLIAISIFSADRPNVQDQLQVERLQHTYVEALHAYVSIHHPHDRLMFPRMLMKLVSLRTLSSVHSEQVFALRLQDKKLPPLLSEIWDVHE
Description: Receptor source: E. coli extract from cells expressing biotinylated hLXRcc. Extract was made in a similar buffer as above, but with 50 mM TRIS.
Washed streptavidin and coated flash plates with wash buffer. Diluted receptor extract to give Bmax ˜4000 cpm and add to the wells. Wrapped the plates in aluminum foil and stored them at +4° C. over night.
as §1
Aspirated wells, and wash the flashed plates. Sealed the plate. Measured the remaining radioactivity in the plate.

SMILES | IC50 (human LXRβ) [nM] | IC50 (human LXRα) [nM]
Cc1nc2c(Cl)cccc2n1-c1cccc(Oc2cc(Cl)cc(S(C)(=O)=O)c2)c1 [Example 46, 4-chloro-1-{3-[3-chloro-5-(methylsulfonyl)phenoxy]phenyl}-2-methyl-1H-benzimidazole] | 3.6 | 36
CCCS(=O)(=O)c1cccc(Oc2cccc(-n3c(C)nc4c(Cl)cccc43)c2)c1 [Example 43, 4-chloro-2-methyl-1-{3-[3-(propylsulfonyl)phenoxy]phenyl}-1H-benzimidazole] | 3.7 | 14
Cc1nc2c(Cl)cccc2n1-c1cccc(Oc2cc(S(C)(=O)=O)ccc2Br)c1 [Example 51, 1-{3-[2-bromo-5-(methylsulfonyl)phenoxy]phenyl}-4-chloro-2-methyl-1H-benzimidazole] | 100 | 646
CCS(=O)(=O)c1cc(F)cc(Oc2cccc(-n3c(C)nc4c(Cl)cccc43)c2)c1 [Example 45, 4-chloro-1-{3-[3-(ethylsulfonyl)-5-fluorophenoxy]phenyl}-2-methyl-1H-benzimidazole] | 6.6 | 31
CCS(=O)(=O)c1ccc(Oc2ccc(Cl)c(-n3c(C)nc4c(Cl)cccc43)c2)cc1 [Example 62, 4-chloro-1-{2-chloro-5-[4-(ethylsulfonyl)phenoxy]phenyl}-2-methyl-1H-benzimidazole] | 65 | 812
Cc1nc2c(Cl)cccc2n1-c1cccc(Oc2ccccc2S(C)(=O)=O)c1 [Example 50, 4-chloro-2-methyl-1-{3-[2-(methylsulfonyl)phenoxy]phenyl}-1H-benzimidazole] | 170 | 746
CCCS(=O)(=O)c1cccc(Oc2ccc(Cl)c(-n3c(C)nc4c(Cl)cccc43)c2)c1 [Example 56, 4-chloro-1-{2-chloro-5-[3-(propylsulfonyl)phenoxy]phenyl}-2-methyl-1H-benzimidazole] | 164 | 2500
Cc1nc2c(C(F)(F)F)cccc2n1-c1cccc(Oc2cccc(S(=O)(=O)CCC(C)(C)O)c2)c1 [Example 11, 2-methyl-4-[(3-{3-[2-methyl-4-(trifluoromethyl)-1H-benzimidazol-1-yl]phenoxy}-phenyl)sulfonyl]butan-2-ol] | 290 | 7000
Cc1nc2c(Cl)cccc2n1-c1cccc(Oc2cccc(S(=O)(=O)CCC(C)C)c2)c1 [Example 53] | 20 | 258
CS(=O)(=O)c1cccc(Oc2ccc(-n3c(C(F)(F)F)nc4c(C(F)(F)F)cccc43)cc2)c1 [Example 70, 1-{4-[3-(methylsulfonyl)phenoxy]phenyl}-2,4-bis(trifluoromethyl)-1H-benzimidazole] | 278 | 4500
CS(=O)(=O)c1cccc(COc2ccc(-n3c(C(F)(F)F)nc4c(C(F)(F)F)cccc43)cc2)c1 [Example 86, 1-(4-{[3-(methylsulfonyl)benzyl]oxy}phenyl)-2,4-bis(trifluoromethyl)-1H-benzimidazole] | > 1000 | > 1000
Cc1nc2c(C(F)(F)F)cccc2n1-c1cccc(Oc2ccc(S(=O)(=O)CCCO)cc2)c1 [Example 15, 3-[(4-{3-[2-methyl-4-(trifluoromethyl)-1H-benzimidazol-1-yl]phenoxy}phenyl)sulfonyl]propan-1-ol] | 945 | 4840
Cc1nc2c(Cl)cccc2n1-c1cc(Oc2ccc(S(C)(=O)=O)cc2)ccc1Cl [Example 61, 4-chloro-1-{2-chloro-5-[4-(methylsulfonyl)phenoxy]phenyl}-2-methyl-1H-benzimidazole] | 357 | 3000
CCS(=O)(=O)c1cc(F)cc(Oc2ccc(Cl)c(-n3c(C)nc4c(Cl)cccc43)c2)c1 [Example 59, 4-chloro-1-{2-chloro-5-[3-(ethylsulfonyl)-5-fluorophenoxy]phenyl}-2-methyl-1H-benzimidazole] | 432 | 2000
Cc1nc2c(Cl)cccc2n1-c1cccc(Oc2cc(F)cc(S(C)(=O)=O)c2)c1 [Example 44, 4-chloro-1-{3-[3-fluoro-5-(methylsulfonyl)phenoxy]phenyl}-2-methyl-1H-benzimidazole] | 3.5 | 12

The remaining lines, values ahead:

IC50 (human LXRβ) [nM] | IC50 (human LXRα) [nM] | SMILES
405 | 4830 | Cc1cc(Oc2cc(F)cc(S(C)(=O)=O)c2)ccc1-n1c(C)nc2c(C(F)(F)F)cccc21 [Example 101, 1-{4-[3-fluoro-5-(methylsulfonyl)phenoxy]-2-methylphenyl}-2-methyl-4-(trifluoromethyl)-1H-benzimidazole]
802 | 6530 | Cc1cc(Oc2cccc(S(C)(=O)=O)c2)ccc1-n1cnc2c(C(F)(F)F)cccc21 [Example 90, 1-{2-methyl-4-[3-(methylsulfonyl)phenoxy]phenyl}-4-(trifluoromethyl)-1H-benzimidazole]
581 | 5200 | Cc1cc(Oc2ccc(S(C)(=O)=O)cc2)ccc1-n1cnc2c(C(F)(F)F)cccc21 [Example 98, 1-{2-methyl-4-[4-(methylsulfonyl)phenoxy]phenyl}-4-(trifluoromethyl)-1H-benzimidazole]
1920 | 15100 | CCc1nc2c(C(F)(F)F)cccc2n1-c1ccc(Oc2ccc(C#N)c(S(C)(=O)=O)c2)cc1 [Example 88, 4-{4-[2-ethyl-4-(trifluoromethyl)-1H-benzimidazol-1-yl]phenoxy}-2-(methylsulfonyl)benzonitrile]
191 | 2780 | Cc1cc(Oc2cccc(S(C)(=O)=O)c2)ccc1-n1c(C)nc2c(C(F)(F)F)cccc21 [Example 93, 2-methyl-1-{2-methyl-4-[3-(methylsulfonyl)phenoxy]phenyl}-4-(trifluoromethyl)-1H-benzimidazole]
304 | 1960 | Cc1nc2c(C(F)(F)F)cccc2n1-c1ccc(Oc2cccc(S(C)(=O)=O)c2)cc1Cl [Example 102, 1-{2-chloro-4-[3-(methylsulfonyl)phenoxy]phenyl}-2-methyl-4-(trifluoromethyl)-1H-benzimidazole]
1110 | 8000 | CCS(=O)(=O)c1cc(F)cc(Oc2ccc(-n3cnc4c(C(F)(F)F)cccc43)c(C)c2)c1 [Example 97, 1-{4-[3-(ethylsulfonyl)-5-fluorophenoxy]-2-methylphenyl}-4-(trifluoromethyl)-1H-benzimidazole]
634 | 6110 | CCS(=O)(=O)c1cccc(Oc2ccc(-n3cnc4c(C(F)(F)F)cccc43)c(C)c2)c1 [Example 91, 1-{4-[3-(ethylsulfonyl)phenoxy]-2-methylphenyl}-4-(trifluoromethyl)-1H-benzimidazole]
357 | 2710 | CCS(=O)(=O)c1cccc(Oc2ccc(-n3cnc4c(C(F)(F)F)cccc43)c(Cl)c2)c1 [Example 105, 1-{2-chloro-4-[3-(ethylsulfonyl)phenoxy]phenyl}-4-(trifluoromethyl)-1H-benzimidazole]
122 | 2100 | CCS(=O)(=O)c1cccc(Oc2ccc(-n3c(C)nc4c(C(F)(F)F)cccc43)c(C)c2)c1 [Example 94]
1310 | 12000 | Cc1cc(Oc2ccc(S(C)(=O)=O)cc2)ccc1-n1c(C)nc2c(C(F)(F)F)cccc21 [Example 100, 2-methyl-1-{2-methyl-4-[4-(methylsulfonyl)phenoxy]phenyl}-4-(trifluoromethyl)-1H-benzimidazole]
348 | 3260 | Cc1cc(Oc2cccc(S(=O)(=O)C(C)C)c2)ccc1-n1cnc2c(C(F)(F)F)cccc21 [Example 92, 1-(2-methyl-4-{3-[(1-methylethyl)sulfonyl]phenoxy}phenyl)-4-(trifluoromethyl)-1H-benzimidazole]
479 | 2580 | CS(=O)(=O)c1cccc(Oc2ccc(-n3cnc4c(C(F)(F)F)cccc43)c(Cl)c2)c1 [Example 104, 1-{2-chloro-4-[3-(methylsulfonyl)phenoxy]phenyl}-4-(trifluoromethyl)-1H-benzimidazole]

From patent US20110034526A1, “Benzimidazole Compounds” (Wyeth LLC, priority 2007, published 2011)
